Test results: patent US11001829B2, “Functional screening with optimized functional CRISPR-Cas systems” (The Broad Institute, Inc., priority 2014, dated 2021)

Key:
Factor VII = conditions: LNP siRNA systems containing the lipid; cited from earlier work
DNA = assay: indel formation by double nicking with sgRNA pairs; type: cell-based; conditions: substitution of Cas9n in a given sgRNA pair
Text: Aspects of the invention relate to the expression of the gene product being decreased or a template polynucleotide being further introduced into the DNA molecule encoding the gene product or an intervening sequence being excised precisely by allowing the two 5′ overhangs to reanneal and ligate or the activity or function of the gene product being altered or the expression of the gene product being increased. In an embodiment of the invention, the gene product is a protein. Only sgRNA pairs creating 5′ overhangs with less than 8 bp overlap between the guide sequences (offset greater than −8 bp) were able to mediate detectable indel formation. […] Nonetheless, a pair of sgRNAs that will generate a 5′ overhang with Cas9n should in principle generate the corresponding 3′ overhang instead, and double nicking. […] Accordingly, in some embodiments, a recombination template is also provided. A recombination template may be a component of another vector as described herein, contained in a separate vector, or provided as a separate polynucleotide. In some embodiments, a recombination template is designed to serve as a template in homologous recombination, such as within or near a target sequence nicked or cleaved by a CRISPR enzyme as a part of a CRISPR complex. […]

[1] = system: A375 melanoma cell line (BRAF V600E); conditions: cited from earlier work
MS2 RNA aptamer = conditions: cited from earlier work
Neurog2 = Neurog2 upregulation in Neuro-2a cells, qRT-PCR; type: cell-based
Protocol: 120,000 cells were plated in each well of a 24-well plate 18-20 h before transfection. Cells were transfected with Lipofectamine transfection reagent (Life Technologies) according to the manufacturer's instructions.
RNA was extracted using the RNeasy kit (Qiagen) according to manufacturer's instructions and […] of RNA per sample was reverse-transcribed using qScript (Quanta Biosystems). Relative mRNA levels were measured by reverse transcription and quantitative PCR (qRT-PCR) using TaqMan probes specific for the targeted gene as well as GAPDH as an endogenous control (Life Technologies). ddCt analysis was used to obtain fold-changes relative to negative controls transfected with GFP only.
A minimal hairpin aptamer capable of binding to the bacteriophage coat protein MS2, which is known to be capable of binding MS2 through strong sequence- and structure-specific interactions in mammalian cells^18,19, to incorporate into tetraloop and stem-loop 2 (FIG. 27b) was chosen. Tests were performed to evaluate whether MS2-mediated recruitment of VP64 to the tetraloop and stem-loop 2 could mediate transcriptional up-regulation more efficiently than a dCas9-VP64 fusion alone. Aptamer-mediated recruitment of MS2-VP64 to either tetraloop (sgRNA 1.1) or stem-loop 2 (sgRNA 1.2) mediated 3- and 5-fold higher levels of Neurog2 up-regulation than a dCas9-VP64 fusion (sgRNA 1.0), respectively.

human ASCL1 = assay: ASCL1 activation in HEK293FT cells, qPCR; type: cell-based
Protocol: (§1) Human HEK293FT cells were maintained in high-glucose DMEM with GlutaMax and sodium pyruvate (Life Technologies) supplemented with 10% heat-inactivated characterized HyClone fetal bovine serum (Thermo Scientific) and 1% penicillin/streptomycin (Life Technologies). Cells were passaged daily at a ratio 1 to 2 or 1 to 2.5. For MS2/dCas9 activator experiments, 20,000 HEK293FT cells were plated in 100 μL of culture medium in poly-d-lysine coated 96-well plates (BD biosciences). […]
(§2) Total plasmid mass per well was 0.3 micrograms. […] Gene expression levels were quantified by using Taqman qPCR probes (Life technologies) and Fast Advanced Master Mix (Life Technologies). ASCL1 and MYOD1 expression levels were calculated relative to GAPDH expression level. Fold gene expression levels were determined by comparison to samples transfected with GFP plasmid only. […]
(§3) A total plasmid mass of 0.3 ug/well was transfected using 1.5 uL/well Lipofectamine 2000 (Life Technologies) according to the manufacturer's instructions. […] Relative RNA expression levels were quantified by reverse transcription and quantitative PCR (qPCR) using Taqman qPCR probes (Life technologies) and Fast Advanced Master Mix (Life Technologies). qPCR was carried out in 5 uL multiplexed reactions and 384-well format using the LightCycler 480 Instrument II. […]

human MYOD1 = assay: MYOD1 activation in HEK293FT cells, qPCR; type: cell-based
Protocol: as §1, §2, §3

CXCR4, CACNAC1A = assay: repression by non-coding Alu loops in the sgRNA with dCas9, HEK293FT, qPCR; type: cell-based, human; conditions: in complex with dCas9
Protocol: The non-coding Alu RNA has previously been described as a transacting repressor interfering with RNA polymerase II in mammalian cells. In addition, a minimal loop required for repression has been identified (sciencedirect.com/science/article/pii/S1097276508000026). Applicants designed guides with different sites of incorporation of the truncated Alu loop (and in combination with PP7 loops). Sequences for these sgRNA backbones are listed below: […]
A total plasmid mass of 0.3 μg/well was transfected using 0.6 μL/well Lipofectamine 2000 (Life Technologies) according to the manufacturer's instructions. […] Relative RNA expression levels were quantified by reverse transcription and quantitative PCR (qPCR) using TaqMan qPCR probes (Life Technologies) and Fast Advanced Master Mix (Life Technologies). qPCR was carried out in 5 μL multiplexed reactions and 384-well format using the LightCycler 480 Instrument II. Data was analyzed by the ΔΔCt method: target Ct values (FAM dye) were normalized to GAPDH Ct values (VIC dye), and fold changes in target gene expression were determined by comparing to GFP-transfected experimental controls.

Molecule: CCCCC/C=C\C/C=C\CCCCCCCCOCC(CN(C)C)OCCCCCCCC/C=C\C/C=C\CCCCC (centres unmarked) [DLinDMA, 1,2-dilinoleyloxy-3-N,N-dimethylaminopropane]
- gene silencing potency, rank order (Factor VII): DLinKC2-DMA>DLinKDMA>DLinDMA>>DLinDAP

Molecule: CCCCC/C=C\C/C=C\CCCCCCCCC1(CCCCCCCC/C=C\C/C=C\CCCCC)OCC(CCN(C)C)O1 (centres unmarked) [DLinKC2-DMA, 1,2-dilinoleyl-4-(2-dimethylaminoethyl)-[1,3]-dioxolane]
- gene silencing potency, rank order (Factor VII): DLinKC2-DMA>DLinKDMA>DLinDMA>>DLinDAP

Molecule: H840A: Cas9 with the H840A mutation in the HNH domain
- indel formation, in words (DNA): no indel formation is observed

Molecule: 1,2-dilinoleyloxy-keto-N,N-dimethyl-3-aminopropane [DLinKDMA]
- gene silencing potency, rank order (Factor VII): DLinKC2-DMA>DLinKDMA>DLinDMA>>DLinDAP

Molecule: CCCS(=O)(=O)Nc1ccc(F)c(C(=O)c2c[nH]c3ncc(Cl)cc23)c1F [PLX4720]
- sensitivity of A375 cells, in words [1]: naturally sensitive

Molecule: CCCCC/C=C\C/C=C\CCCCCCCC(=O)OCC(CN(C)C)OC(=O)CCCCCCC/C=C\C/C=C\CCCCC (centres unmarked) [DLinDAP, 1,2-dilineoyl-3-dimethylammonium-propane]
- gene silencing potency, rank order (Factor VII): DLinKC2-DMA>DLinKDMA>DLinDMA>>DLinDAP

Molecule: N55K mutant of the MS2 bacteriophage coat protein: MS2 variant, N55K mutant
- binding affinity, in words (MS2 RNA aptamer): higher binding affinity than wild type MS2

B1: sgRNA 2.0: sgRNA scaffold in which the tetraloop and stem-loop 2 sequences have been replaced by an MS2 binding loop (nucleic acid)
guide: NNNNNNNNNNNNNNNNNNNNGUUUUAGAGCUAGGCCAACATGAGGATCACCCATGTCTGCAGGGCCUAGCAAGUUAAAAUAAGGCUA
modifications: /note=“Description of Combined DNA/RNA Molecule Synthetic oligonucleotide”; modified_base (1)..(20) a, c, t, g, unknown or other
- levels of Neurog2 up-regulation relative to a dCas9-VP64 fusion (sgRNA 1.0) (Neurog2; aptamer-mediated recruitment of MS2-VP64, with dCas9): 12 fold
- target gene upregulation (Neurog2), in words (Neurog2; with dCas9-vp64 and MS2-vp64, compared with regular guide and dCas9-vp64): much higher target gene upregulation compared to the previous design
- ASCL1 activation, comparison in words (human ASCL1): more potent than either of the 3′ MS2 sgRNA architectures
- levels of transcription activation relative to sgRNA+2×MS2 (human ASCL1; ASCL1): 14 fold
- MYOD1 activation, comparison in words (human MYOD1): more potent than either of the 3′ MS2 sgRNA architectures
- levels of transcription activation relative to sgRNA+2×MS2 (human MYOD1; MYOD1): 8.5 fold

B2: minimal non-coding Alu-loops at the tetraloop and stem-loop 2: sgRNA backbone with truncated Alu loop at tetraloop and stem-loop 2 (nucleic acid)
guide: GTTTTAGAGCTAGAGGCAGGAGAATGGCGTGAACCCGGGAGGTGGCCGAGATCGCTCCAGCCTGGGTGACAGAGCGAGACTCTGTCTCTAGCAAGTTAAAATAAGGCTAGTCCGTTATCAACTTGAGGCAGGAGAATGGCGTGAACCCGGGAGGTGGCCGAGATCGCTCCAGCCTGGGTGACAGAGCGAGACTCTGTCTCAAGTGGCACCGAGTCGGTGCTTTTTTT
- repression of target gene expression, in words (CXCR4, CACNAC1A): able to repress target gene expression in complex with dCas9
